Patent US20100249234A1, “METHODS OF REDUCING VIRULENCE IN BACTERIA” (UWM RESEARCH FOUNDATION, INC., priority 2007, published 2010)

Legend:
Format in all cases: cell-based, Dickeya dadantii 3937 (Ech3937)
[1] = tested on: hrpN promoter; assay: hrpN promoter activity, GFP reporter plasmid phrpN, flow cytometry (FACS); conditions: for GFP intensity (Mean Fluorescence Intensity) of WPP96 (phrpN): hrpL mutant WPP96; for GFP intensity (Mean Fluorescence Intensity) of WPP90 (phrpN): hrpS mutant WPP90; for GFP intensity (Mean Fluorescence Intensity) of WPP67 (phrpN): hrpX mutant WPP67; for GFP intensity (Mean Fluorescence Intensity) of WPP92 (phrpN): hrpY mutant WPP92; for GFP intensity (Mean Fluorescence Intensity) of Ech138 (phrpN): iaaM mutant Ech138, MM + 0.1 mM OCA
[2] = tested on: HrpN; assay: HrpN protein expression; conditions: MM supplemented with 0.1 mM of PCA (FIG. 15)
Description: To further elucidate whether T3SS gene expression is mainly regulated through the HrpX/Y-HrpS-HrpL regulatory pathway, the expression of hrpA and hrpN in wild-type Ech3937 and hrpX (WPP67), hrpY (WPP92), hrpS (WPP90), and hrpL (WPP96) mutants in MM were examined. […] Similar expression of hrpA and hrpN was observed among WPP67, WPP92, WPP90 and WPP96 carrying phrpA and phrpN grown in MM and MM supplemented with PCA. […] Since PCA represses the expression of several T3SS genes such as hrpN, the effect of PCA on protein production of HrpN was further examined.

[3] = tested on: hrpA promoter; assay: hrpA promoter activity, GFP reporter plasmid phrpA, flow cytometry (FACS); conditions: for GFP intensity (Mean Fluorescence Intensity) of WPP96 (phrpA): hrpL mutant WPP96; for GFP intensity (Mean Fluorescence Intensity) of WPP90 (phrpA): hrpS mutant WPP90; for GFP intensity (Mean Fluorescence Intensity) of WPP67 (phrpA): hrpX mutant WPP67; for GFP intensity (Mean Fluorescence Intensity) of WPP92 (phrpA): hrpY mutant WPP92; for GFP intensity (Mean Fluorescence Intensity) of Ech-Rif (phrpA) / GFP intensity (Mean Fluorescence Intensity) of Ech137 (phrpA): MM + 0.1 mM OCA; for GFP intensity (Mean Fluorescence Intensity) of Ech137 (phrpA): gacA mutant Ech137
Procedure: FACS analysis of promoter activity of dspE, hrpA, hrpL, hrpN, and hrpS was carried out as described (Peng et al., 2006). Briefly, the wild-type Ech3937 and the mutant strains carrying the promoter reporter plasmid were grown on LB broth at 28° C. overnight and transferred to appropriate media. For FACS analysis, samples were collected by centrifugation, washed with 1× phosphate buffer saline (PBS) at 13,000 rpm for 1 min, and re-suspended in 1×PBS to ca 10^6 CFU/ml prior to being run in a FACS Calibur flow cytometer (BD Biosciences, CA). Three replicates were performed for each treatment.
To identify potential compounds that repress activation of T3SS, analogs and isomers of TCA and intermediates of salicylic acid and phenypropanoid biosynthesis pathways in plants were further screened for their effect on Ech3937 hrpA expression by flow cytometry (Table 9). A green fluorescent protein (GFP) reporter plasmid phrpA (pProbe-AT derivative with PCR fragment containing hrpA promoter region) was constructed, resulting in a transcriptional fusion of hrpA promoter with GFP gene. Bacterial cells containing phrpA plasmid were grown in MM supplemented with 0.1 mM of each compound. GFP intensity, which is a measurement of hrpA promoter activity, was measured by flow cytometry.

[4] = tested on: hrpS mRNA; assay: qRT-PCR relative mRNA level of hrpS
Procedure: (§1) Bacterial strains were grown in MM. Total RNA from the bacterial cells was isolated by using the TRI reagent method (Sigma, Mo.) and treated with Turbo DNA-free DNase kits (Ambion, TX) as described (Peng et al., 2006). An iScript cDNA Synthesis Kit (Bio-Rad, CA) was used to synthesize cDNA from 0.5 μg of treated total RNA. The Real Master Mix (Eppendorf, Westbury, N.Y.) was used for qRT-PCR reaction to quantify the cDNA level of target genes in different samples. The rplU was used as the endogenous control for data analysis. qRT-PCR data were analyzed using Relative Expression Software Tool as described (Pfaffl, M. W., Horgan, G. W., and Dempfle, L. (2002) Relative expression software tool (REST) for group-wise comparison and statistical analysis of relative expression results in real-time PCR. Nucleic Acids Res 30:e36.).

[5] = tested on: hrpN mRNA; assay: qRT-PCR relative mRNA level of hrpN; conditions: 0.1 mM PCA, P=0.001 (FIG. 14)
Procedure: as §1

[6] = tested on: gacA mRNA; assay: qRT-PCR relative mRNA level of gacA; conditions: MM supplemented with OCA, p>0.5 (FIG. 4)
Procedure: as §1

[7] = tested on: hrpY mRNA; assay: qRT-PCR relative mRNA level of hrpY; conditions: MM supplemented with OCA, p>0.5 (FIG. 4)
Procedure: as §1

[8] = MM + 0.1 mM PCA (MMPCA), 12 h (Table 10)
[9] = MM + 0.1 mM PCA (MMPCA), 12 h (Table 11)
[10] = MM + 0.1 mM PCA (MMPCA), 24 h (Table 10)
[11] = MM + 0.1 mM PCA (MMPCA), 24 h (Table 11)
[12] = MM + 0.1 mM compound, 6 h (Table 9)
[13] = MM + 0.1 mM compound, 12 h (Table 9)
[14] = MM + 0.1 mM compound, 24 h (Table 9)
[15] = MM + 0.1 mM compound, 12 h (Table 4)

With `O=C(O)/C=C/c1ccc(O)cc1` [PCA, p-coumaric acid] the “GFP intensity (Mean Fluorescence Intensity) of Ech3937 (phrpN)” value (from here on “GFP intensity … of Ech3937 (phrpN)”) [1, 8] was 6.8 ± 0.8, the “GFP intensity … of Ech3937 (phrpN)” value [1, 9] was 4.3 ± 0.1 and the “GFP intensity … of Ech3937 (phrpN)” value [1, 10] was 11.3 ± 3.4. The “GFP intensity … of Ech3937 (phrpN)” value [1, 11] was 8.8 ± 2.1, the “promoter activity (expression) of hrpN compared with MM alone” value ([1]; MM supplemented with 0.1 mM PCA) was “reduced expression” and the “GFP intensity (Mean Fluorescence Intensity) of WPP96 (phrpN)” value (from here on “GFP intensity … of WPP96 (phrpN)”) ([1]; MM + 0.1 mM PCA, 12 h) was 3.0 ± 0.0. For the same molecule, the “GFP intensity … of WPP96 (phrpN)” value ([1]; MM + 0.1 mM PCA, 24 h) was 4.3 ± 0.1, the “GFP intensity (Mean Fluorescence Intensity) of WPP90 (phrpN)” value ([1]; MM + 0.1 mM PCA, 12 h) was 3.5 ± 0.1 and the “GFP intensity (Mean Fluorescence Intensity) of WPP90 (phrpN)” value ([1]; MM + 0.1 mM PCA, 24 h) was 5.1 ± 0.1. The “GFP intensity (Mean Fluorescence Intensity) of WPP67 (phrpN)” value ([1]; MM + 0.1 mM PCA, 12 h) was 3.5 ± 0.2, the “GFP intensity (Mean Fluorescence Intensity) of WPP67 (phrpN)” value ([1]; MM + 0.1 mM PCA, 24 h) was 6.3 ± 0.7 and the “GFP intensity (Mean Fluorescence Intensity) of WPP92 (phrpN)” value ([1]; MM + 0.1 mM PCA, 12 h) was 3.6 ± 0.1. The “GFP intensity (Mean Fluorescence Intensity) of WPP92 (phrpN)” value ([1]; MM + 0.1 mM PCA, 24 h) was 5.5 ± 0.3, the “amount of HrpN protein compared with MM alone” value [2] was “lower amount of HrpN” and the “reduction of average GFP fluorescence intensity of Ech3937 (phrpA) compared with MM alone” value ([3]; 0.05 and 0.1 mM of PCA, 12 h and 24 h (FIGS. 16A, 16B)) was “more than 4 fold”. For the same molecule, the “GFP intensity (Mean Fluorescence Intensity) of Ech3937 (phrpA)” value (“GFP intensity … of Ech3937 (phrpA)” for short) [3, 8] was 10.3 ± 1.3, the “GFP intensity … of Ech3937 (phrpA)” value [3, 9] was 9.2 ± 0.4 and the “GFP intensity … of Ech3937 (phrpA)” value [3, 10] was 18.5 ± 3.5. For the same molecule, the “GFP intensity … of Ech3937 (phrpA)” value [3, 11] was 12.7 ± 0.3, the “effect on expression of hrpA (screen result)” value ([3]; MM + 0.1 mM compound (Table 9)) was “inhibitors of the expression of hrpA” and the “expression of hrpA, GFP intensity (Mean Fluorescence Intensity), Ech3937 carrying phrpA” value (“expression of hrpA, GFP intensity” for short) [3, 12] was 6.9 ± 0.1. For the same molecule, the “expression of hrpA, GFP intensity” value [3, 13] was 10.2 ± 0.4, the “expression of hrpA, GFP intensity” value [3, 14] was 11.4 ± 1.0 and the “reduction of GFP fluorescence intensity of Ech3937 (phrpA)” value ([3]; PCA at 0.001, 0.005 and 0.01 (FIGS. 16A, 16B)) was “did not result in substantial reduction”. For the same molecule, the “GFP intensity (Mean Fluorescence Intensity) of WPP96 (phrpA)” value (“GFP intensity … of WPP96 (phrpA)” for short) ([3]; MM + 0.1 mM PCA, 12 h) was 7.3 ± 0.1, the “GFP intensity … of WPP96 (phrpA)” value ([3]; MM + 0.1 mM PCA, 24 h) was 9.0 ± 1.6 and the “GFP intensity (Mean Fluorescence Intensity) of WPP90 (phrpA)” value ([3]; MM + 0.1 mM PCA, 12 h) was 7.9 ± 0.2. For the same molecule, the “GFP intensity (Mean Fluorescence Intensity) of WPP90 (phrpA)” value ([3]; MM + 0.1 mM PCA, 24 h) was 9.3 ± 0.2, the “GFP intensity (Mean Fluorescence Intensity) of WPP67 (phrpA)” value ([3]; MM + 0.1 mM PCA, 12 h) was 7.9 ± 0.2 and the “GFP intensity (Mean Fluorescence Intensity) of WPP67 (phrpA)” value ([3]; MM + 0.1 mM PCA, 24 h) was 9.0 ± 1.3. For the same molecule, the “GFP intensity (Mean Fluorescence Intensity) of WPP92 (phrpA)” value ([3]; MM + 0.1 mM PCA, 12 h) was 6.9 ± 0.1, the “GFP intensity (Mean Fluorescence Intensity) of WPP92 (phrpA)” value ([3]; MM + 0.1 mM PCA, 24 h) was 9.4 ± 0.7 and the “hrpS mRNA relative expression ratio” value ([4]; MM supplemented with PCA vs MM alone (normalized to 1), P=0.001) was 0.223. For the same molecule, the “hrpN mRNA compared with MM alone (normalized to 1), qRT-PCR” value [5] was “significantly lower amount of mRNA”.
In the case of `O=C(O)/C=C/c1ccccc1O` [OCA, o-coumaric acid], the “gacA gene expression, MM vs supplemented MM (qRT-PCR)” value [6] is reported as “No significant difference”, the “increase of average GFP fluorescence intensity of Ech3937 (phrpN) compared with MM alone” value ([1]; 0.05 mM compound added to MM, 12 h and 24 h (FIGS. 2A, 2B)) is reported as “approximately 4 fold” and the “induction of hrpN expression in Ech3937 and in hrpX (WPP67), hrpY (WPP92), hrpS (WPP90) mutants” value ([1]; 0.1 mM compound in MM, 12 h (FIG. 5)) is reported as “induced the expression of hrpN in Ech3937, but not in hrpX, hrpY, and hrpS mutants”. The “GFP intensity … of Ech3937 (phrpN)” value ([1]; MM + 0.1 mM OCA (MMOCA), 6 h (Table 5)) was 31 ± 3, the “GFP intensity … of Ech3937 (phrpN)” value ([1]; MM + 0.1 mM OCA (MMOCA), 12 h (Table 5)) was 91 ± 8 and the “GFP intensity … of Ech3937 (phrpN)” value ([1]; MM + 0.1 mM OCA (MMOCA), 24 h (Table 5)) was 78 ± 8. For the same molecule, the “GFP intensity … of Ech3937 (phrpN)” value [1, 15] was 94 ± 3, the “GFP intensity … of WPP96 (phrpN)” value [1, 15] was 3.3 ± 0.1 and the “GFP intensity (Mean Fluorescence Intensity) of Ech138 (phrpN)” value (“GFP intensity … of Ech138 (phrpN)” for short) ([1]; 6 h) was 9.1 ± 1.6. For the same molecule, the “GFP intensity … of Ech138 (phrpN)” value ([1]; 12 h) was 33 ± 5, the “GFP intensity … of Ech138 (phrpN)” value ([1]; 24 h) was 39 ± 5 and the “average GFP fluorescence intensity of Ech3937 (phrpA) compared with MM alone” value ([3]; 0.1 mM compound, 12 h) was “doubled”. The “GFP intensity (Mean Fluorescence Intensity) of Ech-Rif (phrpA)” value (from here on “GFP intensity … of Ech-Rif (phrpA)”) ([3]; 6 h) was 18 ± 0, the “GFP intensity … of Ech-Rif (phrpA)” value ([3]; 12 h) was 51 ± 2 and the “GFP intensity … of Ech-Rif (phrpA)” value ([3]; 24 h) was 49 ± 1. For the same molecule, the “expression of hrpA, GFP intensity” value [3, 12] was 15.5 ± 1.1, the “GFP intensity … of Ech3937 (phrpA)” value [3, 15] was 82 ± 1 and the “expression of hrpA, GFP intensity” value [3, 13] was 115.5 ± 7.9. For the same molecule, the “expression of hrpA, GFP intensity” value [3, 14] was 225.8 ± 15.6, the “GFP intensity (Mean Fluorescence Intensity) of Ech137 (phrpA)” value (shortened to “GFP intensity … of Ech137 (phrpA)”) ([3]; 6 h) was 4.9 ± 0.1 and the “GFP intensity … of Ech137 (phrpA)” value ([3]; 12 h) was 5.9 ± 0.1. For the same molecule, the “GFP intensity … of Ech137 (phrpA)” value ([3]; 24 h) was 8.3 ± 0, the “GFP intensity … of WPP96 (phrpA)” value [3, 15] was 6.5 ± 0.2 and the “hrpS gene expression, MM vs supplemented MM (qRT-PCR)” value ([4]; MM supplemented with OCA, p>0.5 (FIG. 4)) was “No significant difference”. The “hrpY gene expression, MM vs supplemented MM (qRT-PCR)” value [7] was “No significant difference”.
